The structures appear in SMILES notation. The source made the active and inactive calls. No cut-off for these calls is given here.

Data set [1] deals with RAW264.7. As to the kind of experiment: Inhibition of NO production in LPS-stimulated mouse RAW264.7 cells at 50 uM preincubated for 15 mins followed by LPS stimulation and measured after 20 hrs by Griess reagent based assay relative to control. Type of data set: functional. The settings on record: RAW264.7, 20.25 h, time 1215 min. (Nitrite, measured by Griess reagent, commonly stands in for NO production.)

Data set [2] relates to RAW264.7. As to the kind of experiment: Inhibition of NO production in LPS-stimulated mouse RAW264.7 cells preincubated for 15 mins followed by LPS stimulation and measured after 20 hrs by Griess reagent based assay. Format: functional, cell-based.
Data set [3] is described as follows: Cytotoxicity against LPS-stimulated mouse RAW264.7 cells assessed as cell survival at 50 uM preincubated for 15 mins followed by LPS stimulation and measured after 20 hrs by CCK-8 assay relative to control. Format: toxicity, cell-based. The conditions noted are these: LPS-stimulated RAW264.7 cells, time 1215 min, read-out: Activity. (In general: Tetrazolium assays rely on reduction of a dye to a coloured formazan, in cell work by metabolically active cells.)

Data set [4] is described as follows: Antiinflammatory activity in human 293/NFkB-Luc cells assessed as inhibition of TNF-alpha induced NFkaapaB activity at 50 uM preincubated for 15 mins followed by TNF-alpha induction and measured after 6 hrs by luminescence based assay relative to control. Type of data set: functional. The conditions noted are these: 6.25 h, time 375 min.
Data set [5] is described as follows: Cytotoxicity against TNF-alpha induced human 293/NFkB-Luc cells assessed as increase in cell survival at 50 uM preincubated for 15 mins followed by TNF-alpha induction and measured after 6 hrs by MTT assay relative to control. Format: toxicity, cell-based. The settings on record: TNF-alpha induced 293/NFkB-Luc cells, time 375 min, read-out: Activity.
In data set [6] the test system is RAW264.7. As to the kind of experiment: Antiinflammatory activity in mouse RAW264.7 cells assessed as inhibition of LPS-induced iNOS protein expression at 30 uM preincubated for 15 mins followed by LPS stimulation and measured after 24 hrs by Western blot analysis. Type of data set: functional, cell-based. The conditions noted are these: time 1215.0 min. For orientation: In western blotting, separated proteins are transferred to a membrane and probed.

For data set [7], the system named is RAW264.7. The data set can be described thus: Antiinflammatory activity in mouse RAW264.7 cells assessed as inhibition of LPS-induced […] at 10 to 30 uM preincubated for 15 mins followed by LPS stimulation and measured after 4 hrs by qPCR analysis. Format: functional, cell-based. The settings on record: dose 10-30 µM, time 255.0 min.

With `COc1c(C)[nH]c2c(c1=O)[C@@H](CCCCCc1ccccc1)CCC2`, the inhibition (commonly the percentage by which the read-out fell short of the control) at 50 µM is 97.2% in data set [1] and less than 50% in data set [4]. Moreover, in data set [2], it took 11.7 µM to reach half-maximal inhibition (IC50). Moreover, in data set [3], the viability at 20 h, 50 µM was 84.3%. In addition, the viability at 6 h, 50 µM in data set [5] stood at 77.2%. Moreover, the result in data set [6] and in data set [7] was Active.

Source of the values: ChEMBL document CHEMBL5226392, “Anti-inflammatory Quinoline Alkaloids from the Roots of Waltheria indica” (J Nat Prod, 2023).
